In data set [1] the target is T1, Interleukin-1 receptor-associated kinase 4 (Homo sapiens, UniProt Q9NWZ3).
T1 sequence (Q9NWZ3 whole entry): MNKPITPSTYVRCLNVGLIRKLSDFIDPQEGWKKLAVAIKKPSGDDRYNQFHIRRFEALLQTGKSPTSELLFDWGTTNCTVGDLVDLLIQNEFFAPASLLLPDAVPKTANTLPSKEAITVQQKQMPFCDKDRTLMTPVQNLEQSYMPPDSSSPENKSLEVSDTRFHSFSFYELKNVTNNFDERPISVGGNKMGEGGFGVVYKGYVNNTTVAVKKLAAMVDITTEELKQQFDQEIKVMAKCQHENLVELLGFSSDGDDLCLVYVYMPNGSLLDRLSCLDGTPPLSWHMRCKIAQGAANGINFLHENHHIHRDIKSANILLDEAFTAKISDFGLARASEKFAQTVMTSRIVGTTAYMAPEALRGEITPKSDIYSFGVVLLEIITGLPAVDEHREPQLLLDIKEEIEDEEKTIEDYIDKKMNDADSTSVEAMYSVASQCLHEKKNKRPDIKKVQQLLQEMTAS
In words: Inhibition of IRAK4 (unknown origin).

Data set [2] can be described thus: Antiinflammatory activity against human dendritic cells assessed as inhibition of LPS induced IL-23 production. In kind it is functional, cell-based. As to conditions: Dendritic cell.
A further data set deals with THP-1. Description: Antiinflammatory activity against human THP-1 cells assessed as inhibition of LPS induced IL-23 production. The data set is classed as functional, cell-based.
The test system of another data set is PAD. Description: Induction of PAD activity against human A549 cells. In kind it is toxicity, cell-based.
Data set [3] deals with Mus musculus. Description: Antiinflammatory activity against mouse assessed as inhibition of IL-1 beta-stimulated IL-6 expression at 75 mg/kg. The data set is classed as functional.
The nature of data set [4]: Clearance in rat at 1 mg/kg, iv. In kind it is ADME, organism-based. Particulars: in vivo.
Data set [5] is described as follows: Oral bioavailability in rat at 5 mg/kg. In kind it is ADME, organism-based. Particulars: in vivo.
Data set [6] can be described thus: Plasma concentration in mouse at 75 mg/kg measured after 0.5 hrs. In kind it is ADME, organism-based.
Data set [7] deals with Mus musculus. In words: Antiinflammatory activity against mouse assessed as inhibition of IL-1 beta-stimulated IL-6 expression at 5 mg/kg. The data set is classed as functional.
Data set [8] concerns Mus musculus. Description: Antiinflammatory activity against mouse assessed as inhibition of IL-1 beta-stimulated IL-6 expression at 45 mg/kg. The data set is classed as functional.
The subject of data set [9] is Mus musculus. Description: Antiinflammatory activity against mouse assessed as inhibition of IL-1 beta-stimulated IL-6 expression at 15 mg/kg. In kind it is functional.
The test system of data set [10] is Rattus norvegicus. Description: Antiinflammatory activity against collagen-induced arthritis rat model assessed as inhibition of disease progression at 30 mg/kg, bid. In kind it is functional.
Data set [11] in a line: Drug metabolism in rat liver microsomes assessed as oxidative metabolite formation. In kind it is ADME, Microsome.
The test system of data set [12] is Rattus norvegicus. In words: Antiinflammatory activity against collagen-induced arthritis rat model assessed as inhibition of disease progression at 10 mg/kg, bid. In kind it is functional.
Data set [13] relates to Rattus norvegicus. Description: Antiinflammatory activity against collagen-induced arthritis rat model assessed as inhibition of disease progression at 20 mg/kg, bid. The data set is classed as functional.
The test system of data set [14] is Rattus norvegicus. In words: Antiinflammatory activity against collagen-induced arthritis rat model assessed as inhibition of disease progression at 5 mg/kg, bid. In kind it is functional.

Structures are written as SMILES.

What is called IC50 is the midpoint of a concentration-inhibition curve. What is called inhibition in vivo is the drop in the measured response relative to a control, in per cent. Usually clearance stands for the volume of plasma or blood freed of the substance per unit of time. Higher therefore signals a high capacity for elimination. As a reminder, the bioavailability is the share of a dose that reaches the circulation, judged against a reference dose that is usually intravenous. A high value points to much systemic uptake. For `NC(=O)[C@@H]1[C@H](Nc2nc(Nc3cccc(C(=O)N4CCCC4)c3)nc3ccn(C(F)F)c23)[C@H]2C=C[C@@H]1C2`, the concentration for half-maximal inhibition (IC50) in data set [1] was determined as 2 nM; in data set [2] it was 40 nM; with THP-1, 130 nM; in the data set on PAD, 1500 nM. Moreover, the inhibition in vivo at 75 mg/kg in the data set with Mus musculus [3] worked out at 0%. In data set [4], this compound yielded a clearance of 88 mL/min/kg. Besides, in data set [5], the bioavailability worked out at 8%. In data set [6], this compound registered a concentration at 0.5 h of 410 ng/mL.
Regarding `CC(C)n1ncc2ccc(Nc3nc(N[C@H]4[C@@H](C(N)=O)[C@@H]5C=C[C@H]4C5)c4c(ccn4C(F)F)n3)cc21`, the inhibition in vivo at 5 mg/kg with Mus musculus [7] is 9%. Moreover, the IC50 in [1] was found to be 4.3 nM; in [2] it was 220 nM; with THP-1, 230 nM; with PAD, 820 nM. In the data set with Mus musculus [8], the inhibition in vivo at 45 mg/kg came to 37%. The inhibition in vivo at 75 mg/kg with Mus musculus [3] amounted to 64%. The inhibition in vivo at 15 mg/kg in the data set with Mus musculus [9] is 16%. In data set [4], this compound gave a clearance of 6 mL/min/kg. In [5], this compound returned a bioavailability of 43%. Further, the inhibition in vivo at 30 mg/kg with Rattus norvegicus [10] is 100%.
As for `NC(=O)[C@@H]1[C@H](Nc2nc(Nc3cc(F)cc(N4CCOCC4)c3)nc3ccsc23)[C@H]2C=C[C@@H]1C2`, the IC50 in data set [1] amounted to 12 nM; in [2] it was 230 nM; in the data set with THP-1, 110 nM; with PAD, 2300 nM. Also, in the data set with Mus musculus [3], the inhibition in vivo at 75 mg/kg was determined as 30%. Moreover, the clearance in data set [4] is 40 mL/min/kg. Besides, the bioavailability in data set [5] is 24%.
For the compound `NC(=O)[C@@H]1[C@H](Nc2nc(Nc3cccc(C(=O)N4CCCC4)c3)nc3ccsc23)[C@H]2C=C[C@@H]1C2`, the concentration for half-maximal inhibition (IC50) in [2] came to 40 nM; in the data set on THP-1 it was 90 nM; in the data set on PAD, 3800 nM. For the same compound, the clearance in data set [4] was 113 mL/min/kg. The Drug metabolism entry in data set [11] was “Metabolite_Detected”.
As to `Cn1ccc2nc(Nc3cccc(C(=O)N4CCCC4)c3)nc(N[C@H]3[C@@H](C(N)=O)[C@@H]4C=C[C@H]3C4)c21`, the IC50 in data set [1] stood at 4 nM; in data set [2], 260 nM; with THP-1, 130 nM; in the data set on PAD, 9400 nM. The clearance in data set [4] amounted to 58 mL/min/kg. In addition, the bioavailability in data set [5] turned out to be 1%.
Consider `NC(=O)[C@@H]1[C@H](Nc2nc(Nc3cc(F)cc(N4CCOCC4)c3)nc3ccoc23)[C@H]2C=C[C@@H]1C2`, for which the half-maximal inhibitory concentration (IC50) in data set [1] was 15 nM; in data set [2] it was 140 nM; in the data set with THP-1 it was 250 nM; with PAD, 3200 nM. The inhibition in vivo at 10 mg/kg with Rattus norvegicus [12] turned out to be 56%. In addition, the inhibition in vivo at 20 mg/kg in the data set on Rattus norvegicus [13] is 97%. Further, the inhibition in vivo at 75 mg/kg in the data set with Mus musculus [3] stood at 65%. Further, in data set [4], the clearance is 53 mL/min/kg. The bioavailability in data set [5] was found to be 38%. The inhibition in vivo at 5 mg/kg in the data set with Rattus norvegicus [14] came out at 30%. In addition, in the data set with Rattus norvegicus [10], the inhibition in vivo at 30 mg/kg was found to be 100%.
`Cc1n[nH]c2nc(Nc3cccc(C(=O)N4CCCC4)c3)nc(N[C@H]3[C@@H](C(N)=O)[C@@H]4C=C[C@H]3C4)c12`: the half-inhibitory concentration (IC50) in data set [1] worked out at 3 nM; in data set [2], 90 nM; in the data set on THP-1, 80 nM; in the data set with PAD, 1600 nM. In addition, in the data set with Mus musculus [3], the inhibition in vivo at 75 mg/kg amounted to 0%. Besides, the clearance in data set [4] was 63 mL/min/kg. The same compound came in with a bioavailability in [5] of 27%. The compound also had a concentration at 0.5 h in data set [6] of 65 ng/mL.
Take `NC(=O)[C@@H]1[C@H](Nc2nc(Nc3cc(F)cc(N4CCOCC4)c3)nc3ccn(C(F)F)c23)[C@H]2C=C[C@@H]1C2`: the IC50 in [1] is 9 nM; in [2], 260 nM; in the data set on THP-1 it was 220 nM; with PAD, 1000 nM. In addition, in the data set with Mus musculus [3], the inhibition in vivo at 75 mg/kg came to 0%. This compound also yielded a clearance in data set [4] of 10 mL/min/kg. The bioavailability in data set [5] came to 37%.
